Test results: patent US6638957B1, “Use of compounds with a nitrogen-oxygen heterocycle” (Jomaa Pharmaka GmbH, priority 1999, dated 2003)
Values after ≈ are worked out from the molar mass of the structure shown. Read-outs that look alike come from different tables or passages of the source.

Legend:
Reis = assay: herbicidal activity, Hydro Vorauflauf; assay type: in vivo; settings: 4000 Gramm/Hektar
Description: (§1) The determination of herbicidal activity is performed according to standard procedure. Again the compounds listed on page 9 are tested.

Echinochloa = assay: herbicidal activity, Hydro Vorauflauf; assay type: in vivo; settings: 4000 Gramm/Hektar
Description: as §1

Lepidium = assay: herbicidal activity, Hydro Vorauflauf; assay type: in vivo; settings: 4000 Gramm/Hektar
Description: as §1

Solanum = assay: herbicidal activity, Hydro Vorauflauf; assay type: in vivo; settings: 4000 Gramm/Hektar
Description: as §1

[1] = target: T1, DOXP reductoisomerase of Escherichia coli (UniProt P56139); assay: inhibition of recombinant DOXP reductoisomerase (NADPH oxidation); assay type: biochemical; settings: 1 mM DOXP, 0,3 mM NADPH, pH 7,5; read-out: IC50(nM) of DOXP reductoisomerase from Helicobacter pilori
T1 sequence (P56139 1-368): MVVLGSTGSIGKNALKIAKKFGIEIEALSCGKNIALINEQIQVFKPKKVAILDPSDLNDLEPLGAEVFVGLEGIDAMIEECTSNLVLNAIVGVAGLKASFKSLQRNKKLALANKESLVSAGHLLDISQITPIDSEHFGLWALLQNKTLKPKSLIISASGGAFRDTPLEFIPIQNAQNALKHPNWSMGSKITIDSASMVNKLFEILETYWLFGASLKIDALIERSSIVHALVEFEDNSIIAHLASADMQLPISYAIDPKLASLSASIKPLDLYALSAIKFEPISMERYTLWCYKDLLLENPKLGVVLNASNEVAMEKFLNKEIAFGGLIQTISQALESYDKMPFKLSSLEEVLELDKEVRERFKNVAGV

Plasmodium falciparum = assay: antimalaria activity on in vitro cultures, [3H]-hypoxanthine incorporation; assay type: cell-based; settings: 72 h, inhibition of [3H]-hypoxanthine incorporation, 48 + 24 hours, read-out: IC50(nM) of malaria culture (Plasmodium falciparum)
Description: The antimalaria activity of the compounds listed on page 9 was determined on in vitro cultures of the malaria pathogen Plasmodium falciparum. The depressions of a 96-well microtitre plate were charged with in each case 200 μl of an asynchroneous Plasmodium falciparum culture at a parasitaemia of 0,4% and haematokrit of 2%. A serial dilution series of the compounds in triple steps between concentrations of 100 to 0,14 μmol 1^−1 was then prepared. The plates were incubated at 37° C., 3% CO2 and 5% O2 over a period of 48 hours. 30 μl medium supplemented with 27 μCi ml^−1 [^3H]-hypoxanthine were then added to each well. After incubation for 24 hours the parasites were harvested by filtration on a glass fibre filter and the radioactivity which had been incorporated was measured. The inhibition of the growth of parasites was measured as the percentage inhibition of the incorporation of tritium. Inhibition of the growth of the parasites has been determined as percentage inhibition of incorporation of tritium based on a comparison without the substance. The half-maximum inhibitory concentration (IC50) of the substance was determined by extrapolation of the values.

Pseudomonas aeruginosa = assay: antibacterial activity, minimum inhibition concentration in liquid culture; assay type: cell-based; settings: read-out: MIC(nM) of bacteria culture (Pseudomonas aeruginosa)
Description: A dilution series comprising the concentrations 500, 100, 50, 10 and 0 μmol 1^−1 of the individual compounds in LB medium is introduced into 5 culture microtubes in a volume of 0,5 ml. The tubes were inoculated with 10 μl of an overnight culture of E. coli K12 and shaken overnight at 37° C. The growth of the bacteria was assessed on the basis of the turbidity of the medium. The minimum concentration causing inhibition of bacterial growth was determined (minimum inhibition concentration MIC)
The antibacterial activity of P. aeruginosa was determined in the same manner.

Abutilon theophrasti [2] = assay: herbicidal activity, Erde Vorauflauf; assay type: in vivo; settings: 2000 Gramm/Hektar
Description: as §1

Galium aperine [3] = assay: herbicidal activity, Erde Vorauflauf; assay type: in vivo; settings: 2000 Gramm/Hektar
Description: as §1

Cyperus esculentus [4] = assay: herbicidal activity, Erde Vorauflauf; assay type: in vivo; settings: 2000 Gramm/Hektar
Description: as §1

Zea mays [5] = assay: herbicidal activity, Erde Vorauflauf; assay type: in vivo; settings: 2000 Gramm/Hektar
Description: as §1

Avena fatua [6] = assay: herbicidal activity, Erde Vorauflauf; assay type: in vivo; settings: 2000 Gramm/Hektar
Description: as §1

Setaria viridis [7] = assay: herbicidal activity, Erde Vorauflauf; assay type: in vivo; settings: 2000 Gramm/Hektar
Description: as §1

Amaranthus retroflexus [8] = assay: herbicidal activity, Erde Vorauflauf; assay type: in vivo; settings: 2000 Gramm/Hektar
Description: as §1

Xanthium strumarium [9] = assay: herbicidal activity, Erde Vorauflauf; assay type: in vivo; settings: 2000 Gramm/Hektar
Description: as §1

Beta vulgaris [10] = assay: herbicidal activity, Erde Vorauflauf; assay type: in vivo; settings: 2000 Gramm/Hektar
Description: as §1

Alopecurus myosuroides [11] = assay: herbicidal activity, Erde Vorauflauf; assay type: in vivo; settings: 2000 Gramm/Hektar
Description: as §1

Sinapis arvensis [12] = assay: herbicidal activity, Erde Vorauflauf; assay type: in vivo; settings: Mutarda arvensis; 2000 Gramm/Hektar
Description: as §1

Abutilon theophrasti [13] = assay: herbicidal activity, Erde Nachauflauf; assay type: in vivo; settings: 2000 Gramm/Hektar
Description: as §1

Galium aperine [14] = assay: herbicidal activity, Erde Nachauflauf; assay type: in vivo; settings: 2000 Gramm/Hektar
Description: as §1

Cyperus esculentus [15] = assay: herbicidal activity, Erde Nachauflauf; assay type: in vivo; settings: 2000 Gramm/Hektar
Description: as §1

Zea mays [16] = assay: herbicidal activity, Erde Nachauflauf; assay type: in vivo; settings: 2000 Gramm/Hektar
Description: as §1

Avena fatua [17] = assay: herbicidal activity, Erde Nachauflauf; assay type: in vivo; settings: 2000 Gramm/Hektar
Description: as §1

Setaria viridis [18] = assay: herbicidal activity, Erde Nachauflauf; assay type: in vivo; settings: 2000 Gramm/Hektar
Description: as §1

Amaranthus retroflexus [19] = assay: herbicidal activity, Erde Nachauflauf; assay type: in vivo; settings: 2000 Gramm/Hektar
Description: as §1

Xanthium strumarium [20] = assay: herbicidal activity, Erde Nachauflauf; assay type: in vivo; settings: 2000 Gramm/Hektar
Description: as §1

Beta vulgaris [21] = assay: herbicidal activity, Erde Nachauflauf; assay type: in vivo; settings: 2000 Gramm/Hektar
Description: as §1

Alopecurus myosuroides [22] = assay: herbicidal activity, Erde Nachauflauf; assay type: in vivo; settings: 2000 Gramm/Hektar
Description: as §1

Sinapis arvensis [23] = assay: herbicidal activity, Erde Nachauflauf; assay type: in vivo; settings: Mutarda arvensis; 2000 Gramm/Hektar
Description: as §1

[24] = LB medium, overnight at 37° C., turbidity

Row | Structure (SMILES) | pest or weed control at 4000 g/ha (Reis) | pest or weed control at 4000 g/ha (Echinochloa) | pest or weed control at 4000 g/ha (Lepidium) | pest or weed control at 4000 g/ha (Solanum) | IC50 [1] | IC50 (Plasmodium falciparum) | pest or weed control at 2000 g/ha (Abutilon theophrasti [2]) | pest or weed control at 2000 g/ha (Galium aperine [3]) | pest or weed control at 2000 g/ha (Cyperus esculentus [4]) | plant injury at 2000 g/ha (Zea mays [5]) | pest or weed control at 2000 g/ha (Avena fatua [6]) | pest or weed control at 2000 g/ha (Setaria viridis [7]) | pest or weed control at 2000 g/ha (Amaranthus retroflexus [8]) | pest or weed control at 2000 g/ha (Xanthium strumarium [9]) | plant injury at 2000 g/ha (Beta vulgaris [10]) | pest or weed control at 2000 g/ha (Alopecurus myosuroides [11]) | pest or weed control at 2000 g/ha (Sinapis arvensis [12]) | pest or weed control at 2000 g/ha (Abutilon theophrasti [13]) | pest or weed control at 2000 g/ha (Galium aperine [14]) | pest or weed control at 2000 g/ha (Cyperus esculentus [15]) | further results
1 | CP(=O)(O)CCCN1OCCCC1=O [Compound 4] | 30% | 70% | 30% | 30% | 78 nM | 9200 nM | 0% | 0% | 0% | 30% | 60% | 0% | 0% | 0% | 60% | 0% | 70% | 50% | 70% | 0% | MIC (Pseudomonas aeruginosa): 7000 nM (≈ 1.55 µg/mL); plant injury at 2000 g/ha (Zea mays [16]): 70%; pest or weed control at 2000 g/ha (Avena fatua [17]): 40%; pest or weed control at 2000 g/ha (Setaria viridis [18]): 90%; pest or weed control at 2000 g/ha (Amaranthus retroflexus [19]): 40%; pest or weed control at 2000 g/ha (Xanthium strumarium [20]): 90%; plant injury at 2000 g/ha (Beta vulgaris [21]): 50%; pest or weed control at 2000 g/ha (Alopecurus myosuroides [22]): 70%; pest or weed control at 2000 g/ha (Sinapis arvensis [23]): 60%
2 | CC(C)N(C)CCCN1OCCC1=O [Compound 7] | 30% | 40% | 0% | 30% | 18 nM | 400 nM | 0% | 0% | 0% | 30% | 30% | 0% | 20% | 0% | 70% | 30% | 30% | 50% | 95% | 0% | MIC (Pseudomonas aeruginosa; [24]): 9000 nM (≈ 1.8 µg/mL); plant injury at 2000 g/ha (Zea mays [16]): 70%; pest or weed control at 2000 g/ha (Avena fatua [17]): 80%; pest or weed control at 2000 g/ha (Setaria viridis [18]): 90%; pest or weed control at 2000 g/ha (Amaranthus retroflexus [19]): 50%; pest or weed control at 2000 g/ha (Xanthium strumarium [20]): 90%; plant injury at 2000 g/ha (Beta vulgaris [21]): 70%; pest or weed control at 2000 g/ha (Alopecurus myosuroides [22]): 80%; pest or weed control at 2000 g/ha (Sinapis arvensis [23]): 80%
3 | CN(C)CCCN1OCCCC1=O [Compound 6] | 40% | 50% | 30% | 0% | 130 nM | 1600 nM | 0% | 0% | 0% | 0% | 0% | 0% | 0% | 0% | 60% | 70% | 30% | 60% | 80% | 0% | MIC (Pseudomonas aeruginosa; [24]): 2500 nM (≈ 0.466 µg/mL); plant injury at 2000 g/ha (Zea mays [16]): 70%; pest or weed control at 2000 g/ha (Avena fatua [17]): 60%; pest or weed control at 2000 g/ha (Setaria viridis [18]): 70%; pest or weed control at 2000 g/ha (Amaranthus retroflexus [19]): 70%; pest or weed control at 2000 g/ha (Xanthium strumarium [20]): 60%; plant injury at 2000 g/ha (Beta vulgaris [21]): 40%; pest or weed control at 2000 g/ha (Alopecurus myosuroides [22]): 40%; pest or weed control at 2000 g/ha (Sinapis arvensis [23]): 60%
